Data reported in PubChem BioAssay (NCI).
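96-well plates; 48 h exposure; 5 concentrations. Endpoints by linear interpolation between flanking doses. Not reached: highest tested concentration assigned. The concentration for 50% growth inhibition is given as GI50. At the TGI there is no net growth.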

How the values were obtained:
Assay in all cases: NCI anticancer screen, dose series, 48 h
PC-3 prostate = tested on: PC-3 prostate
ACHN renal = tested on: ACHN renal
OVCAR-5 ovarian = tested on: OVCAR-5 ovarian
HCT-15 colon = tested on: HCT-15 colon
786-0 renal = tested on: 786-0 renal
SN12C renal = tested on: SN12C renal
NCI-H460 lung = tested on: NCI-H460 lung
SF-539 CNS = tested on: SF-539 CNS
RPMI-8226 leukemia = tested on: RPMI-8226 leukemia
U251 CNS = tested on: U251 CNS
SW-620 colon = tested on: SW-620 colon
TK-10 renal = tested on: TK-10 renal
LOX IMVI melanoma = tested on: LOX IMVI melanoma
SF-268 CNS = tested on: SF-268 CNS
CCRF-CEM leukemia = tested on: CCRF-CEM leukemia
HCT-116 colon = tested on: HCT-116 colon
SK-MEL-5 melanoma = tested on: SK-MEL-5 melanoma
NCI-H226 lung = tested on: NCI-H226 lung
UACC-257 melanoma = tested on: UACC-257 melanoma
NCI-H23 lung = tested on: NCI-H23 lung
MDA-MB-231 breast = tested on: MDA-MB-231 breast
SK-MEL-28 melanoma = tested on: SK-MEL-28 melanoma
SK-OV-3 ovarian = tested on: SK-OV-3 ovarian
HOP-62 NSCLC = tested on: HOP-62 NSCLC
CAKI-1 renal = tested on: CAKI-1 renal
NCI/ADR-RES ovarian = tested on: NCI/ADR-RES ovarian
SNB-75 CNS = tested on: SNB-75 CNS
NCI-H522 lung = tested on: NCI-H522 lung
UO-31 renal = tested on: UO-31 renal
HOP-92 NSCLC = tested on: HOP-92 NSCLC
T-47D breast = tested on: T-47D breast
A549 NSCLC = tested on: A549 NSCLC
BT-549 breast = tested on: BT-549 breast
DU-145 prostate = tested on: DU-145 prostate
K-562 leukemia = tested on: K-562 leukemia
HT29 colon = tested on: HT29 colon
MDA-MB-435 = tested on: MDA-MB-435
IGROV1 ovarian = tested on: IGROV1 ovarian
MALME-3M melanoma = tested on: MALME-3M melanoma
SF-295 CNS = tested on: SF-295 CNS
SK-MEL-2 melanoma = tested on: SK-MEL-2 melanoma
EKVX NSCLC = tested on: EKVX NSCLC
COLO 205 colon = tested on: COLO 205 colon
SNB-19 CNS = tested on: SNB-19 CNS
OVCAR-8 ovarian = tested on: OVCAR-8 ovarian
HL-60(TB) leukemia = tested on: HL-60(TB) leukemia
UACC-62 melanoma = tested on: UACC-62 melanoma
HS 578T breast = tested on: HS 578T breast
RXF 393 renal = tested on: RXF 393 renal
OVCAR-4 ovarian = tested on: OVCAR-4 ovarian
MCF7 breast = tested on: MCF7 breast
KM12 colon = tested on: KM12 colon
OVCAR-3 ovarian = tested on: OVCAR-3 ovarian

## CCCCCCCCCCCCCCCC(=O)OCC1OC(OCCCC)[C@H](O[C@@H]2OC(C)C(OC(=O)CCC)C(O)C2O)C(O)C1O (stereo partly specified)
PC-3 prostate
  GI50: 15.4 µM
  TGI: 30.5 µM
ACHN renal
  GI50: 18.1 µM
  TGI: 35.2 µM
OVCAR-5 ovarian
  GI50: 14.2 µM
  TGI: 27.6 µM
HCT-15 colon
  GI50: 22.5 µM
  TGI: 55.7 µM
786-0 renal
  GI50: 16.7 µM
  TGI: 30.8 µM
SN12C renal
  GI50: 14.1 µM
  TGI: 28.5 µM
NCI-H460 lung
  GI50: 22.4 µM
  TGI: 57.8 µM
SF-539 CNS
  GI50: 21 µM
  TGI: 36.8 µM
RPMI-8226 leukemia
  GI50: 16.8 µM
  TGI: 33.4 µM
U251 CNS
  GI50: 18.8 µM
  TGI: 38.8 µM
SW-620 colon
  GI50: 21.9 µM
  TGI: 44.5 µM
TK-10 renal
  GI50: 15.6 µM
  TGI: 30.2 µM
LOX IMVI melanoma
  GI50: 20 µM
  TGI: 44 µM
SF-268 CNS
  GI50: 18.4 µM
  TGI: 42.4 µM
CCRF-CEM leukemia
  GI50: 17.2 µM
  TGI: 35 µM
HCT-116 colon
  GI50: 15.4 µM
  TGI: 28.7 µM
SK-MEL-5 melanoma
  GI50: 17.7 µM
  TGI: 34.2 µM
NCI-H226 lung
  GI50: 16.8 µM
  TGI: 36.2 µM
UACC-257 melanoma
  GI50: 22.6 µM
  TGI: 61.4 µM
NCI-H23 lung
  GI50: 16.2 µM
  TGI: 30.2 µM
MDA-MB-231 breast
  GI50: 14.4 µM
  TGI: 30.2 µM
SK-MEL-28 melanoma
  GI50: 16.5 µM
  TGI: 32.1 µM
SK-OV-3 ovarian
  GI50: 5.12 µM
  TGI: 16.1 µM
HOP-62 NSCLC
  GI50: 16.8 µM
  TGI: 30.8 µM
CAKI-1 renal
  GI50: 12.9 µM
  TGI: 26.2 µM
NCI/ADR-RES ovarian
  GI50: 18 µM
  TGI: 32.3 µM
SNB-75 CNS
  GI50: 14.4 µM
  TGI: 28.7 µM
NCI-H522 lung
  GI50: 21.1 µM
  TGI: 46.7 µM
UO-31 renal
  GI50: 28.3 µM
  TGI: > 100 µM
HOP-92 NSCLC
  GI50: 17 µM
  TGI: 33.2 µM
T-47D breast
  GI50: 18.7 µM
  TGI: 40 µM
A549 NSCLC
  GI50: 17.4 µM
  TGI: 34 µM
BT-549 breast
  GI50: 23.4 µM
  TGI: 41.7 µM
DU-145 prostate
  GI50: 19.7 µM
  TGI: 35 µM
K-562 leukemia
  GI50: 16.8 µM
  TGI: 31.6 µM
HT29 colon
  GI50: 18.6 µM
  TGI: 38.7 µM
MDA-MB-435
  GI50: 13.3 µM
  TGI: 27.3 µM
IGROV1 ovarian
  GI50: 23.1 µM
  TGI: > 100 µM
MALME-3M melanoma
  GI50: 16.7 µM
  TGI: 42.4 µM
SF-295 CNS
  GI50: 13.8 µM
  TGI: 28.2 µM
SK-MEL-2 melanoma
  GI50: 41.2 µM
  TGI: > 100 µM
EKVX NSCLC
  GI50: 19.4 µM
  TGI: 36.5 µM
COLO 205 colon
  GI50: 17.8 µM
  TGI: 37.2 µM
SNB-19 CNS
  GI50: 15.4 µM
  TGI: 32.8 µM
OVCAR-8 ovarian
  GI50: 17 µM
  TGI: 32.9 µM
HL-60(TB) leukemia
  GI50: 14.5 µM
  TGI: 32 µM
UACC-62 melanoma
  GI50: 10.2 µM
  TGI: 23.6 µM
HS 578T breast
  GI50: 16.2 µM
  TGI: 44.2 µM
RXF 393 renal
  GI50: 22.3 µM
  TGI: 61.2 µM
OVCAR-4 ovarian
  GI50: 18.1 µM
  TGI: 34.2 µM
MCF7 breast
  GI50: 30.1 µM
  TGI: > 100 µM
KM12 colon
  GI50: 17.1 µM
  TGI: 31.9 µM
OVCAR-3 ovarian
  GI50: 13.4 µM
  TGI: 29.6 µM
